# Laboratory results as given in PMC3326533 (Cell, 2008).
# Molecular target: XPD (S. acidocaldarius) (Sulfolobus acidocaldarius, UniProt Q4JC68)
# Conditions: ssDNA-stimulated; temperature and pH not stated here
# XPD (S. acidocaldarius), sequence (Q4JC68 whole entry): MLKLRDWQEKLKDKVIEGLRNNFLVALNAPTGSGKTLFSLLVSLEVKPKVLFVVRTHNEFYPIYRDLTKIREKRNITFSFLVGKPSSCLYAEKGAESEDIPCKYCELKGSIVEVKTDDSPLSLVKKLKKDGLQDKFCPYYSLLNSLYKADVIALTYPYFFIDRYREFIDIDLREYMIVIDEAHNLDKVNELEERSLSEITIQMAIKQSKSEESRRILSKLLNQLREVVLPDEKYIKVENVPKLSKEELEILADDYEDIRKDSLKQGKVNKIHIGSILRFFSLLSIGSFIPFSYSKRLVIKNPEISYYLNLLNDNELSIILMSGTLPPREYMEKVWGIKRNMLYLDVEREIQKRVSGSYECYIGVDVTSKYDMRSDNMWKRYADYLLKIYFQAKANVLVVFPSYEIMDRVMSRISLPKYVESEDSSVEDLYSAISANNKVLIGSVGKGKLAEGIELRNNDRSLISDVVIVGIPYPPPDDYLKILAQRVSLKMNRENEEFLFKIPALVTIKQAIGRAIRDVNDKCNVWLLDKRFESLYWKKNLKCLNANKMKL
smiles,measurement,value
Nc1ncnc2c1ncn2[C@@H]1O[C@H](COP(=O)(O)OP(=O)(O)OP(=O)(O)O)[C@@H](O)[C@H]1O [ATP],ATPase rate,Plot of the ssDNA-stimulated ATPase activities of the indicated wild-type and mutant proteins
